“Also recorded” adds a separate entry of the source. Values belong to the molecule of their own block, whether it stands above or below them.
What was measured:
[1] = test system: granule cells of the dentate gyrus; test: GABAergic activity (sIPSCs), whole-cell patch-clamp in acute brain slices; format: cell-based, mouse; settings: for GABAergic activity (in words): Sortilin −/− mouse brain slices
Description: FIG. 8: Neuronal GABA activity is increased in Sortilin and SorCS2 −/− mice, and can be rescued by BDNF. A, model describing how dentate gyrus granule cells are under powerful inhibitory control by GABAergic basket cells. The basket cell excitability is in turn depressed by BDNF released from the granule cells (Holm et al. Submitted, 2008) B, the GABAergic activity was assessed by electrophysiological recordings from single neurons in an in vitro mouse brain slice preparation (P16-P20). In each experimental condition, the frequency of spontaneous inhibitory postsynaptic currents (sIPSCs) was measured in Hz. In control mice (wildtype, WT) the GABAergic activity was 2.96±0.53 Hz (n=33 cells). In Sortilin −/− (Sortilin KO) mice, this activity increased to 6.15±0.80 Hz (n=25 cells). In rescue experiments, exogenous BDNF (20 ng/ml) reversed the GABA activity of Sortilin KO mice back to WT levels, reaching 2.66±1.4 Hz (n=3 cells). For comparison, the GABAergic activity in SorCS2 −/− (SorCS2 KO) mice was 5.68±0.7 Hz (n=6), highlighting the importance of Vps10p proteins in these inhibitory cell functions. Error bars indicate S.E.M.
3-4 week wildtype and Sortilin deficient mice were examined for neurophysiological in vitro correlates of anxiety/depression like behavior. In fresh 350 μm thick brain slices, inhibitory GABAergic synaptic input to hippocampal granule cells were quantified in living tissues. Electrophysiological patch-clamp recordings were carried out from acute brain slices from WT, Sortilin and Sorcs2 knockout (KO) mice. Following deep isoflurane anesthesia, male mice were sacrifized and the brain was carefully dissected out and cooled. 350 um thick brain slices were cut on a Vibratome 3000 Plus, and the tissue rested in O2/CO2 bubbled Ringer solution for at least 1 hour before experimentation (Drasbek and Jensen 2006). Whole-cell patch-clamp recordings were carried out at 33° C. from the soma of identified granule cells of the dentate gyrus (Jensen and Mody 2001). Under conditions of blocked glutamatergic excitation, GABAergic activity was apparent as spontaneous inhibitory postsynaptic currents (sIPSCs) that could be blocked by the GABAA receptor antagonist SR95531 (100 μM). For each cell, the frequency of sIPSCs was analyzed and frequencies were pooled within each experimental group. In rescue experiments, BDNF (brain-derived neurotrophic factor, 20 ng/ml) was perfused to the brain slice for at least 5 min and the GABAergic activity was assessed. […] Subsequently, the pathophysiological neuronal activity was restored in Sortilin deficient mouse brain slices by administering exogenous brain-derived neurotrophic factor (BDNF 20 ng/ml) to the tissue bathing solution (FIG. 8B).

[2] = test system: Sortilin −/− hippocampal CA1 synapses; test: NMDA receptor-dependent LTD in Sortilin −/− hippocampal slices (f-EPSP recording); format: cell-based, mouse; settings: 40 ng/ml for at least 1 h before recording and throughout, LFS 1 Hz, 15 min
Description: FIG. 3: Impaired NMDA receptor-dependent LTD in Sortilin −/− and SorCS1 −/− mice. A, lack of LTD in sortilin −/− hippocampal CA1 synapses by the application of LFS (1 Hz, 15 min) to the Schaffer collaterals. In wt hippocampal CA1 synapses a LFS induces synaptic depression. B, rescue of NMDA receptor-dependent LTD in Sortilin −/− hippocampal CA1 synapses by cleavage-resistant proBDNF. […] LFS (1 Hz, 15 min) was applied to the Schaffer collaterals. In Sortilin −/− hippocampal slices incubated with control vehicle the LTD was still impaired. C, a similar experiment showing rescue of NMDA receptor-dependent LTD in sortilin −/− hippocampal CA1 synapses by 40 ng/ml purified soluble Sortilin. D, a similar experiment showing lack of LTD in SorCS1 −/− hippocampal CA1 synapses. […]
SorCS2 −/− mice were backcrossed onto a C57BL/6 background for more than ten generations and wild type C57BL/6 mice were used as control. […] After a recovery period of at least two h, the slices were moved to an interface chamber exposed to a humidified atmosphere of 95% O2 and 5% CO2 and we recorded field Exitatory Post-Synaptic Potentials (f-EPSP) using an Axoclamp-2B amplifier (Axon Instruments) with an artificial cerebral spinal fluid (ACSF; in mM: 126 NaCl, 2.5 KCl, 1.25 NaH2PO4, 2.5 CaCl2, 1.3 MgCl2, 10 D-glucose)-filled glass microelectrode (10-15 MΩ) positioned in the stratum radiatum of hippocampal area CA1. […]

[3] = test system: patient suffering from a mental and behavioural disorder; test: Passive delivery device implanted into the brain of a patient with a mental and behavioural disorder (Examples 18, 19); format: in vivo, human; settings: device for passive delivery surgically implanted into the brain
Text: (§1) The soluble domain of human Sortilin is expressed recombinantly at a large scale in a mammalian cell culture and is subsequently purified by for example immunoaffinity chromatography. A device for passive delivery containing purified soluble Sortilin is surgically implanted into the brain of a patient suffering from a mental and behavioural disorder. Good effect is obtained and the patient is set on lifelong treatment.
as §1, with “chromatography. Similarly, proBDNF is expressed and purified at a large scale. Soluble Sortilin and proBDNF is incubated together to form a preformed Sortilin:proBDNF complex.” for “chromatography.”, “preformed Sortilin:proBDNF” for “soluble Sortilin”

Molecule: Br.COc1ccc(-c2ccc(=N)n(CCCC(=O)O)n2)cc1 [SR95531, reference compound]
- spontaneous inhibitory postsynaptic currents (sIPSCs) ([1]; 100 μM, blocked glutamatergic excitation): blocked

- NMDA receptor-dependent LTD [2]: rescued
- NMDA receptor-dependent LTD ([2]; listed as recombinant soluble Sortilin): rescued
Molecule: soluble Sortilin: purified soluble Sortilin, the luminal (Vps10p-domain) part of the receptor
- effect of treatment in the patient [3]: Good effect

B1: mature BDNF: mature brain-derived neurotrophic factor (protein)
chain: HSDPARRGELSVCDSISEWVTAADKKTAVDMSGGTVTVLEKVPVSKGQLKQYFYETKCNPMGYTKEGCRGIDKRHWNSQCRTTQSYVRALTMDSKKRIGWRFIRIDTSCVCTLTIKRGR
- frequency of spontaneous inhibitory postsynaptic currents (sIPSCs) ([1]; Sortilin KO mouse brain slices, 20 ng/ml, n=3 cells): 2.66±1.4 Hz
- GABAergic activity (in words) ([1]; 20 ng/ml): restored
- GABAergic activity (in words) ([1]; 20 ng/ml, listed as exogenous BDNF): normalizes; also recorded: reversed

From patent publication US8703125B2, “Modulation of the Vps10p-domain receptor family for the treatment of mental and behavioural disorders” (H. Lundbeck A/S, priority 2008, dated 2014)
